# Assay results as given in patent publication US7129208B2, “Synthetic ion channels” (Washington University, priority 2002, dated 2006).
# Values joined by “and” are separate entries in the source; they are usually repeats but may differ in a detail not shown here. Equal entries are not always repeated. The star is where a group is joined. (C18H37)2NCOCH2OCH2CO = CCCCCCCCCCCCCCCCCCN(CCCCCCCCCCCCCCCCCC)C(=O)COCC(=O)*; OBn = c1ccc(CO*)cc1
# Legend:
# [1] = Chloride release from liposomes (chloride-specific electrode); assay type: biochemical; settings: for chloride release / efflux from liposomes: unilamellar liposomes 182±12 nm
# Procedure: Liposomes were prepared by reverse-phase evaporation^26 as previously reported.^27 Cl^− release was determined with a resin, chloride-specific electrode. Ion transport, mediated by (C18H37)2NCOCH2OCH2CO-GGGPGGG-OCH2Ph (SEQ ID NO.: 2), was studied in unilamellar liposomes of 182±12 nm average dimension. […] Neither the anchor-GGGLGGG (SEQ ID NO.: 3) compound nor the anchor-GGG compound retains the kink believed to be present in (C18H37)2NCOCH2OCH2CO-GGGPGGG-OCH2Ph (SEQ ID NO.: 2) owing to the presence of the proline residue.
# Substituting an impermeant external ion (SO4^=) for a permeant one (NO3^−) will generate a membrane potential that inhibits Cl^− release. Thus, replacing nitrate by sulfate in the aqueous medium produced a 5-fold reduction in chloride efflux (data not shown).
# [2] = Voltage clamp in planar lipid bilayers; assay type: biochemical; settings: for maximum conductance (chloride diffusion pathway): linear current-voltage relationship, 63 μM in b201
# Procedure: The chloride selectivity of (C18H37)2NCOCH2OCH2CO-GGGPGGG-OCH2Ph (SEQ ID NO.: 2) was assessed by voltage clamp methods in planar phospholipid bilayers. Addition of (C18H37)2NCOCH2OCH2CO-GGGPGGG-OCH2Ph (SEQ ID NO.: 2) to planar bilayer lipids produced large currents within seconds in a 450:150 mM KCl ion gradient. The sign and the magnitude of this current indicated Cl^− transport by a nanoSiemen-sized channel. A linear current-voltage relationship gave a maximum conductance of 1.3±0.1 nS. The reversal potential, Erev, was 28±0.45 mV, corresponding to the calculated chloride Nernst potential, ECl, of 28.2 mV. This confirms the >10:1 Cl^−/K^+ selectivity observed in liposomes. The ion selectivity and conductivity indicate that (C18H37)2NCOCH2OCH2CO-GGGPGGG-OCH2Ph (SEQ ID NO.: 2) forms a large, stable, anion selective aqueous pore in bilayer membranes.
# Planar lipid bilayers were formed by standard methods. (C18H37)2NCOCH2OCH2CO-GGGPGGG-OCH2Ph (SEQ ID NO.: 2) was applied to the cis chamber at 60 μM (micromolar) with a 450 mM/150 mM KCl gradient present across the membrane. Seconds later Cl^− currents appeared and voltage was varied from +20 to −2 mV. Fractional open time was computed using the computer programs Fetchan and pStat (Axon Instruments, CA).
# The chloride selectivity of (C18H37)2NCOCH2OCH2CO-GGG-P-GGG-OCH2Ph (SEQ ID NO.: 2) was assessed by voltage clamp methods in planar lipid bilayers prepared as described in P. Schlesinger, et al., Proc. Natl. Acad. Sci. 94, 11357 (1997). The addition of 63 μM (C18H37)2NCOCH2OCH2CO-GGG-P-GGG-OCH2Ph (SEQ ID NO.: 2) produced large currents within seconds in a 450:150 mM KCl ion gradient (FIG. 8a). […] The reversal potential, Erev, was 28±0.45 mV, corresponding to the calculated chloride Nernst potential, ECl, of 28.2 mV (FIG. 8c). This confirms the >10:1 Cl^−/K^+ selectivity observed in liposomes. The ion selectivity and conductivity indicate that (C18H37)2NCOCH2OCH2CO-GGG-P-GGG-OCH2Ph (SEQ ID NO.: 2) forms a large, stable, anion selective aqueous pore in bilayer membranes.
# [3] = Carboxyfluorescein fluorescence dequenching: pore activation and size, dextran block; assay type: biochemical
# Procedure: Fluorescence dequenching was used to study pore activation and size as previously described in Saito et al. CF dequenching reflects the kinetics of pore activation and dequenching is accurately fit by this equation. Ft=F0+A1(1−e^−(t/τ))+mt
# This exponential model requires that the concentration dependence of quenching will reflect the molecularity of pore activation (FIG. 9a, 9b). […] We infer therefore that at ˜100 μM, the active pore involves two molecules of (C18H37)2NCOCH2OCH2CO-GGG-P-GGG-OCH2Ph (SEQ ID NO.: 2). […] Size-specific dextran block (using ˜6–26 Å diameter molecules) confirmed an apparent pore diameter of 6.6 A (FIG. 9d, 9e) (M. Saito, S. J. Korsmeyer, P. H. Schlesinger, Nature Cell Biology, 553 (2000); S. Rex, G. Schwarz, Biochemistry37, 2336 (1998)).
# [4] = Pore size from molecular models and bilayer conductance data
# RAW 264.7 cells [5] = assay: Intracellular calcium, Fura-2 fluorescence ratio method; settings: 46 μM or 92 μM applied at time zero
# Procedure: We determined cell volume from 0.5 micron image stacks collected at 30 second intervals and calculated the time-dependent volume changes that are shown in FIG. 7B. […] RAW 264.7 cells (American Type Culture Collection, Manassas Va.) were plated into microscope chambers in Dulbeccos Minimal Essential Media with antibiotics and 10% fetal calf serum and allowed to recover over night at 5% CO2. Prior to experiment they were transferred to Hanks buffered saline (10 mM HEPES, pH 7.0) and placed into the thermostated microscope stage (37° C.) and permitted to equilibrate for 10 min. Cell volume was monitored and corrected for changes in cell geometry by optical sections at 0.5 micron steps from the glass surface to the top of the cell (typically 5–7 sections). Images were collected using a Zeiss 100 M Axovert microscope, a 12-bit Sensi-Cam, and analyzed using Slidebook 3.0 (Intelligent Imaging Innovations, Inc. Cambridge, Mass.). Cell volume was calculated by summing the intracellular surface for each image in the stack of sections. […] In FIG. 7B the cellular volume changes were followed by comparing sequential series of z-stacks from optical sections and normalized to total cell volume at the beginning of the experiment (t=0). […] Intracellular calcium was followed using Fura-2 fluorescence ratio method. […]
# RAW 264.7 cells [6] = assay: Cell volume regulation in a monocytic cell line (optical sections)
# Procedure: We determined cell volume from 0.5 micron image stacks collected at 30 second intervals and calculated the time-dependent volume changes that are shown in FIG. 7B. […] RAW 264.7 cells (American Type Culture Collection, Manassas Va.) were plated into microscope chambers in Dulbeccos Minimal Essential Media with antibiotics and 10% fetal calf serum and allowed to recover over night at 5% CO2. Prior to experiment they were transferred to Hanks buffered saline (10 mM HEPES, pH 7.0) and placed into the thermostated microscope stage (37° C.) and permitted to equilibrate for 10 min. Cell volume was monitored and corrected for changes in cell geometry by optical sections at 0.5 micron steps from the glass surface to the top of the cell (typically 5–7 sections). Images were collected using a Zeiss 100 M Axovert microscope, a 12-bit Sensi-Cam, and analyzed using Slidebook 3.0 (Intelligent Imaging Innovations, Inc. Cambridge, Mass.). Cell volume was calculated by summing the intracellular surface for each image in the stack of sections. […] In FIG. 7B the cellular volume changes were followed by comparing sequential series of z-stacks from optical sections and normalized to total cell volume at the beginning of the experiment (t=0). […] Intracellular calcium was followed using Fura-2 fluorescence ratio method. […] Depolarization dependent increase in cytosolic calcium was initiated by the switch to 100 mM KCl at 200 seconds (open triangle).
molecule,measurement,setting,value
(C18H37)2NCOCH2OCH2CO-Gly-Gly-Gly-OCH2Ph [(C18H37)2NCOCH2OCH2CO-GGG-OCH2Ph],reduction of Cl- release,[1]; compared with the GGGPGGG compound,6 fold
(H37C18)2NCOCH2OCH2CO-Gly-Gly-Gly-Leu-Gly-Gly-Gly-OCH2Ph ({(H37C18)2NCOCH2OCH2CO}-GGGLGGG-OBn) [anchor-GGGLGGG],chloride release / efflux from liposomes,[1],dramatically reduced
"CC(C)[C@@H]1NC(=O)[C@H](C)OC(=O)[C@@H](C(C)C)NC(=O)[C@@H](C(C)C)OC(=O)[C@H](C(C)C)NC(=O)[C@H](C)OC(=O)[C@@H](C(C)C)NC(=O)[C@@H](C(C)C)OC(=O)[C@H](C(C)C)NC(=O)[C@H](C)OC(=O)[C@@H](C(C)C)NC(=O)[C@@H](C(C)C)OC1=O [valinomycin, reference compound]",effect on membrane potential inhibition of net chloride movement,[1]; added to liposomes with the channel compound in sulfate medium,permitted the remaining chloride to exit the liposomes
(C18H37)2NCOCH2OCH2CO-Gly-Gly-Gly-Pro-Gly-Gly-Gly-OCH2Ph ({(C18H37)2NCOCH2OCH2CO}-GGGPGGG-OBn; SMILES CCCCCCCCCCCCCCCCCCN(CCCCCCCCCCCCCCCCCC)C(=O)COCC(=O)NCC(=O)NCC(=O)NCC(=O)N1CCC[C@H]1C(=O)NCC(=O)NCC(=O)NCC(=O)OCc1ccccc1) [(C18H37)2NCOCH2OCH2CO-GGGPGGG-OCH2Ph],reduction in chloride efflux on replacing nitrate by sulfate in the aqueous medium,"[1]; external SO4 instead of NO3, data not shown",5 fold
same,chloride release / efflux from liposomes,[1],"rapid, concentration dependent, and went to completion"
same,voltage dependent gating,"[2]; 60 μM in cis chamber, 450 mM/150 mM KCl gradient, voltage +20 to -2 mV",voltage dependent gating
same,"reversal potential, Erev","[2]; 450:150 mM KCl ion gradient, calculated chloride Nernst potential 28.2 mV",28±0.45 mV
same,maximum conductance (chloride diffusion pathway),[2]; 450:150 mM KCl ion gradient,1.3±0.1 nS
same,maximum conductance (chloride diffusion pathway),"[2]; 450:150 mM KCl ion gradient, listed as (C18H37)2NCOCH2OCH2CO-GGG-P-GGG-OCH2Ph",1.3±0.01 nS
same,molecules in the active pore,"[3]; at ~100 μM, inferred",two
same,apparent pore diameter,"[3]; size-specific dextran block, ~6–26 Å diameter molecules",6.6 A
same,pore size,"[4]; molecular models, conductance data and dextran block taken together",6–8 Å
same,pore diameter,[4]; suggested by molecular models and bilayer conductance data,6.5–8 Å
same,change in cytosolic calcium,RAW 264.7 cells [5],small increases
same,cell volume decrease,"RAW 264.7 cells [6]; 46 μM added at t=0, normalized to total cell volume at t=0",20% and 20±0.5%
same,"extent of cell volume decrease, of the initial cell volume",RAW 264.7 cells [6]; 100 μM,20–25%
same,effect on cellular volume,RAW 264.7 cells [6]; mammalian cells,modulates cellular volume
